Species: Rattus norvegicus
Assay: Open TG-GATES - Regimen: Daily Repeat
Type: toxicity, organism-based, Sprague-Dawley
Set-up: regimen Daily Repeat, gender Male, age 6 weeks
Settings: in vivo, po, 0 mg/kg, route gavage, dose level Control; for APTT / Bas / Eos / Fbg / Hb / Ht / Lym / MCH / MCHC / MCV / Mono / Neu / PT / Plat / RBC / Ret / WBC: tissue Blood; for KIDNEY_L / KIDNEY_R / KIDNEY_TOTAL: tissue Kidney; for LIVER: tissue Liver; for A/G / ALP / ALT / AST / BUN / CRE / Ca / Cl / DBIL / GLC / IP / K / LDH / Na / PL / RALB / TBIL / TC / TG / TP / gamma-GTP: tissue Plasma

NC1=NC(=O)C(c2ccccc2)O1 (configuration not stated) [PEMOLINE]
TERMINAL_BW (72 h, time 3 day): 236.5 g
APTT (72 h, time 3 day): 16.2 s
Bas (72 h, time 3 day): 0%
Eos (72 h, time 3 day): 1%
Fbg (72 h, time 3 day): 282.2 mg/dL
Hb (72 h, time 3 day): 13.4 g/dL
Ht (72 h, time 3 day): 39.7%
Lym (72 h, time 3 day): 77.6%
MCH (72 h, time 3 day): 21.7 pg
MCHC (72 h, time 3 day): 33.7%
MCV (72 h, time 3 day): 64.3 fL
Mono (72 h, time 3 day): 3.4%
Neu (72 h, time 3 day): 17.6%
PT (72 h, time 3 day): 12.8 s
Plat (72 h, time 3 day): 105.9 x10_4/uL
RBC (72 h, time 3 day): 617.8 x10_4/ul
Ret (72 h, time 3 day): 8%
WBC (72 h, time 3 day): 90 x10_2/uL
KIDNEY_L (72 h, time 3 day): 1 g
KIDNEY_R (72 h, time 3 day): 1 g
KIDNEY_TOTAL (72 h, time 3 day): 2 g
LIVER (72 h, time 3 day): 11 g
A/G (72 h, time 3 day): 0.9
ALP (72 h, time 3 day): 1625 IU/L
ALT (72 h, time 3 day): 43 IU/L
AST (72 h, time 3 day): 70 IU/L
BUN (72 h, time 3 day): 14.8 mg/dL
CRE (72 h, time 3 day): 0.2 mg/dL
Ca (72 h, time 3 day): 10.7 mg/dL
Cl (72 h, time 3 day): 105.8 meq/L
DBIL (72 h, time 3 day): 0.022 mg/dL
GLC (72 h, time 3 day): 184 mg/dL
IP (72 h, time 3 day): 7.6 mg/dL
K (72 h, time 3 day): 3.9 meq/L
LDH (72 h, time 3 day): 58.6 IU/L
Na (72 h, time 3 day): 143 meq/L
PL (72 h, time 3 day): 147.6 mg/dL
RALB (72 h, time 3 day): 2.6 g/dL
TBIL (72 h, time 3 day): 0.026 mg/dL
TC (72 h, time 3 day): 86 mg/dL
TG (72 h, time 3 day): 88.6 mg/dL
TP (72 h, time 3 day): 5.5 g/dL
gamma-GTP (72 h, time 3 day): 1 IU/L
TERMINAL_BW ([…], time 7 day): 274.2 g
TERMINAL_BW ([…], time 14 day): 326.9 g
TERMINAL_BW ([…], time 28 day): 438.2 g
APTT ([…], time 7 day): 17.2 s
Bas ([…], time 7 day): 0.2%
Eos ([…], time 7 day): 1%
Fbg ([…], time 7 day): 286.6 mg/dL
Hb ([…], time 7 day): 13.8 g/dL
Ht ([…], time 7 day): 40%
Lym ([…], time 7 day): 75.4%
MCH ([…], time 7 day): 21.6 pg
MCHC ([…], time 7 day): 34.4%
MCV ([…], time 7 day): 62.7 fL
Mono ([…], time 7 day): 3.4%
Neu ([…], time 7 day): 19.2%
PT ([…], time 7 day): 12.9 s
Plat ([…], time 7 day): 126.1 x10_4/uL
RBC ([…], time 7 day): 638.2 x10_4/ul
Ret ([…], time 7 day): 6.4%
WBC ([…], time 7 day): 103.3 x10_2/uL
APTT ([…], time 14 day): 17.8 s
Bas ([…], time 14 day): 0%
Eos ([…], time 14 day): 0.8%
Fbg ([…], time 14 day): 314 mg/dL
Hb ([…], time 14 day): 13.9 g/dL
Ht ([…], time 14 day): 39.7%
Lym ([…], time 14 day): 75.2%
MCH ([…], time 14 day): 21.3 pg
MCHC ([…], time 14 day): 35%
MCV ([…], time 14 day): 60.8 fL
Mono ([…], time 14 day): 2.2%
Neu ([…], time 14 day): 21.4%
PT ([…], time 14 day): 12.8 s
Plat ([…], time 14 day): 103.7 x10_4/uL
RBC ([…], time 14 day): 653.2 x10_4/ul
Ret ([…], time 14 day): 4.2%
WBC ([…], time 14 day): 86.4 x10_2/uL
APTT ([…], time 28 day): 17.4 s
Bas ([…], time 28 day): 0.2%
Eos ([…], time 28 day): 1%
Fbg ([…], time 28 day): 268.4 mg/dL
Hb ([…], time 28 day): 15.1 g/dL
Ht ([…], time 28 day): 42.3%
Lym ([…], time 28 day): 82.2%
MCH ([…], time 28 day): 20.2 pg
MCHC ([…], time 28 day): 35.7%
MCV ([…], time 28 day): 56.5 fL
Mono ([…], time 28 day): 2.6%
Neu ([…], time 28 day): 12.6%
PT ([…], time 28 day): 12.2 s
Plat ([…], time 28 day): 108.5 x10_4/uL
RBC ([…], time 28 day): 749.2 x10_4/ul
Ret ([…], time 28 day): 2.8%
WBC ([…], time 28 day): 121.3 x10_2/uL
KIDNEY_L ([…], time 7 day): 1.1 g
KIDNEY_R ([…], time 7 day): 1.1 g
KIDNEY_TOTAL ([…], time 7 day): 2.2 g
KIDNEY_L ([…], time 14 day): 1.3 g
KIDNEY_R ([…], time 14 day): 1.3 g
KIDNEY_TOTAL ([…], time 14 day): 2.6 g
KIDNEY_L ([…], time 28 day): 1.4 g
KIDNEY_R ([…], time 28 day): 1.4 g
KIDNEY_TOTAL ([…], time 28 day): 2.9 g
LIVER ([…], time 7 day): 13.2 g
LIVER ([…], time 14 day): 14.4 g
LIVER ([…], time 28 day): 18.9 g
A/G ([…], time 7 day): 0.9
ALP ([…], time 7 day): 1625.6 IU/L
ALT ([…], time 7 day): 41.4 IU/L
AST ([…], time 7 day): 68 IU/L
BUN ([…], time 7 day): 15.4 mg/dL
CRE ([…], time 7 day): 0.2 mg/dL
Ca ([…], time 7 day): 10.6 mg/dL
Cl ([…], time 7 day): 104.4 meq/L
DBIL ([…], time 7 day): 0.022 mg/dL
GLC ([…], time 7 day): 184 mg/dL
IP ([…], time 7 day): 7.2 mg/dL
K ([…], time 7 day): 3.8 meq/L
LDH ([…], time 7 day): 80.2 IU/L
Na ([…], time 7 day): 142 meq/L
PL ([…], time 7 day): 160.8 mg/dL
RALB ([…], time 7 day): 2.7 g/dL
TBIL ([…], time 7 day): 0.028 mg/dL
TC ([…], time 7 day): 84.2 mg/dL
TG ([…], time 7 day): 131.8 mg/dL
TP ([…], time 7 day): 5.8 g/dL
gamma-GTP ([…], time 7 day): 1 IU/L
A/G ([…], time 14 day): 0.8
ALP ([…], time 14 day): 1289.6 IU/L
ALT ([…], time 14 day): 46.2 IU/L
AST ([…], time 14 day): 71.8 IU/L
BUN ([…], time 14 day): 15.2 mg/dL
CRE ([…], time 14 day): 0.2 mg/dL
Ca ([…], time 14 day): 11.2 mg/dL
Cl ([…], time 14 day): 105.4 meq/L
DBIL ([…], time 14 day): 0.012 mg/dL
GLC ([…], time 14 day): 180.2 mg/dL
IP ([…], time 14 day): 8.3 mg/dL
K ([…], time 14 day): 3.6 meq/L
LDH ([…], time 14 day): 66.8 IU/L
Na ([…], time 14 day): 144.6 meq/L
PL ([…], time 14 day): 144.6 mg/dL
RALB ([…], time 14 day): 2.7 g/dL
TBIL ([…], time 14 day): 0.018 mg/dL
TC ([…], time 14 day): 78.8 mg/dL
TG ([…], time 14 day): 88.2 mg/dL
TP ([…], time 14 day): 6 g/dL
gamma-GTP ([…], time 14 day): 1 IU/L
A/G ([…], time 28 day): 0.8
ALP ([…], time 28 day): 980.4 IU/L
ALT ([…], time 28 day): 41.2 IU/L
AST ([…], time 28 day): 61.6 IU/L
BUN ([…], time 28 day): 16.6 mg/dL
CRE ([…], time 28 day): 0.2 mg/dL
Ca ([…], time 28 day): 11.4 mg/dL
Cl ([…], time 28 day): 104 meq/L
DBIL ([…], time 28 day): 0.018 mg/dL
GLC ([…], time 28 day): 182.2 mg/dL
IP ([…], time 28 day): 6.9 mg/dL
K ([…], time 28 day): 3.7 meq/L
LDH ([…], time 28 day): 68.8 IU/L
Na ([…], time 28 day): 143 meq/L
PL ([…], time 28 day): 160.2 mg/dL
RALB ([…], time 28 day): 2.8 g/dL
TBIL ([…], time 28 day): 0.022 mg/dL
TC ([…], time 28 day): 77.4 mg/dL
TG ([…], time 28 day): 215 mg/dL
TP ([…], time 28 day): 6.3 g/dL
gamma-GTP ([…], time 28 day): 1 IU/L
